“And” between values parts separate entries of the source, which are not always exact repeats. Equal entries are not always repeated.
Assays:
[1] = target: wt-BTK (Homo sapiens (Human), UniProt Q06187); assay: Binding kinetics measurements (Surface Plasmon Resonance) on wt-BTK; settings: for Kd: binding affinity by Surface Plasmon Resonance (SPR); for Tau (h) wt-BTK (Act): target residence time, SPR
Method in brief: (§1)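 Using streptavidin-captured kinase, binding was followed by SPR in 1% DMSO buffer at 22° C and 30 μl/min. Five consecutive compound injections spanned 3.16-316 nM, preceded by a blank run; data were double referenced before kinetic fitting.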

[2] = target: BTK T474I (Homo sapiens (Human), UniProt Q06187, T474I); assay: Binding kinetics measurements (Surface Plasmon Resonance) on BTK T474I; settings: for Kd: binding affinity by Surface Plasmon Resonance (SPR); for Tau (h) BTK T474I (Act): target residence time, SPR
BTK T474I, sequence (Q06187 whole entry T474I): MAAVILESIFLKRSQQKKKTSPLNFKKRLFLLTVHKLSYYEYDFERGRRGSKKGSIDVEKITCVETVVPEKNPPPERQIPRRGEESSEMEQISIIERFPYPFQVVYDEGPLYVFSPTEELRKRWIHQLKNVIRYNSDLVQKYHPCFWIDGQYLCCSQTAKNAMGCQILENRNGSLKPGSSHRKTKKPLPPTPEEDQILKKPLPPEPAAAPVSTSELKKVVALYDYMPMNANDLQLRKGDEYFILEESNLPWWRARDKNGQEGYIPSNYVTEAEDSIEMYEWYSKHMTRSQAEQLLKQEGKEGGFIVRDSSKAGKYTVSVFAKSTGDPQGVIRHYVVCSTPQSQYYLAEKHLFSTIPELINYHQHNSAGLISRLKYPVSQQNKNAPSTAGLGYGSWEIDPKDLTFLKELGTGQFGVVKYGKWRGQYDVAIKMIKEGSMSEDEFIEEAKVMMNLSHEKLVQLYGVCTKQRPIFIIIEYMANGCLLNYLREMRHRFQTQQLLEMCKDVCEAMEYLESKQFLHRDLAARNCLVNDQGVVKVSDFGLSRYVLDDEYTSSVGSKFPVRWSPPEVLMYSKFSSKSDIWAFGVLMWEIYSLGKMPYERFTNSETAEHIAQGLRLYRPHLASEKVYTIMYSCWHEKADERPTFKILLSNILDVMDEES
Method in brief: as §1

[3] = target: full-length wt-BTK enzyme (Homo sapiens (Human), UniProt Q06187); assay: Biochemical kinase assay wt-BTK (IMAP)
full-length wt-BTK enzyme, sequence (Q06187 whole entry): as the sequence (Q06187 whole entry T474I) above, with I474T counted along it
Method in brief: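 Compound and enzyme (final 1.2 nM) were pre-incubated for 1 h at RT, after which the reaction was started with 4 μM ATP plus 50 nM fluorescein-MBP substrate peptide. After 2 h in the dark, the IMAP progressive binding reagent stopped the reaction, and phosphorylation was read by fluorescence polarization.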

[4] = target: full-length BTK C481S enzyme (Homo sapiens (Human), UniProt Q06187, C481S); assay: Biochemical kinase assay BTK C481S (IMAP)
full-length BTK C481S enzyme, sequence (Q06187 whole entry C481S): as the sequence (Q06187 whole entry T474I) above, with I474T, C481S counted along it
Method in brief: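 IC50 values come from IMAP fluorescence polarization after quenching with progressive binding solution. The reaction ran 2 h at room temperature in the dark with 1.2 nM full-length C481S enzyme, 7 μM ATP and 50 nM fluorescein-labelled MBP-derived peptide, following a 1 h dark pre-incubation of compound with enzyme.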

[5] = target: BTK T316A (Homo sapiens (Human), UniProt Q06187, T316A); assay: Binding kinetics measurements (Surface Plasmon Resonance) on BTK T316A; settings: for Kd: binding affinity by Surface Plasmon Resonance (SPR); for Tau (h) BTK T316A (Act): target residence time, SPR
BTK T316A, sequence (Q06187 whole entry T316A): as the sequence (Q06187 whole entry T474I) above, with T316A, I474T counted along it
Method in brief: as §1

[6] = target: BTK C481S (Homo sapiens (Human), UniProt Q06187, C481S); assay: Binding kinetics measurements (Surface Plasmon Resonance) on BTK C481S; settings: for Kd: binding affinity by Surface Plasmon Resonance (SPR); for Tau (h) BTK C418S (Act): target residence time for BTK C481S, SPR
BTK C481S, sequence (Q06187 whole entry C481S): as the sequence (Q06187 whole entry T474I) above, with I474T, C481S counted along it
Method in brief: as §1

[7] = system: wt-TMD8 diffuse large B-cell lymphoma cells; assay: Cell proliferation assay wt-TMD8 (ATPlite, 120 hours); assay type: cell-based; settings: B-cell; wt-TMD8 cells, 120 hours, ATPlite; read-out: IC50 wt-TMD8
Method in brief: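 Readout is percentage growth from ATPlite 1Step luminescence after 5 days (120 h) compound treatment of wt-TMD8 lymphoma cells (1600/well, RPMI-1640 + 10% FBS). Time-zero signal separates growth inhibition from cell kill; 0.3% DMSO wells without compound define maximal growth.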

[8] = system: REC-1 T474I cell lines; assay: Cell proliferation assay REC-1 BTK T474I knock-in cells (ATPlite, 72 hours); assay type: cell-based; settings: Homo sapiens, Rec1; 72 hours; read-out: IC50 REC-1 T474I
Method in brief: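 REC-1 cells carrying CRISPR knock-in mutant BTK, single-cell cloned and sequence-confirmed, were exposed to compound for 72 h and read by ATPlite luminescence. Percentage growth was calculated against the signal at the start of incubation and against untreated 0.3% DMSO wells as maximum growth.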

[9] = target: BTK T474S (Homo sapiens (Human), UniProt Q06187, T474S); assay: Binding kinetics measurements (Surface Plasmon Resonance) on BTK T474S; settings: for residence time: SPR binding kinetics, BTK T474S, read-out: Tau (h) BTK T474S (Act), target residence time (converted); for Kd: binding affinity by Surface Plasmon Resonance (SPR)
BTK T474S, sequence (Q06187 whole entry T474S): as the sequence (Q06187 whole entry T474I) above, with I474S counted along it
Method in brief: as §1

[10] = system: wt-REC-1 mantle cell lymphoma cells; assay: Cell proliferation assay wt-REC-1 (ATPlite, 72 hours); assay type: cell-based; settings: 72 h; read-out: IC50 wt-REC-1
Method in brief: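 Luminescent viability read over 72 h, start-of-incubation signal recorded separately to separate growth from cell death. Percentage growth referenced to compound-free 0.3% DMSO wells; IC50 from 4-parameter logistic fit.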

wt-BTK, sequence (Q06187 whole entry): as the sequence (Q06187 whole entry T474I) above, with I474T counted along it

| Kd [1] [nM] | Tau (h) wt-BTK (Act) [1] [h] | Kd [2] | Tau (h) BTK T474I (Act) [2] [h] | IC50 [3] [nM] | IC50 [4] [nM] | Kd [5] [nM] | Tau (h) BTK T316A (Act) [5] [h] | Kd [6] [nM] | Tau (h) BTK C418S (Act) [6] [h] | IC50 [7] [nM] | residence time [9] [h] | Kd [9] [nM] | IC50 [10] [nM] | Compound | IC50 [8] [nM] |
| --- | --- | --- | --- | --- | --- | --- | --- | --- | --- | --- | --- | --- | --- | --- | --- |
| < 5 | 7.37 | < 2 nM | 2.01 | < 5 | < 5 | < 5 | 3.89 | < 5 | 4.27 | < 100 | 4.18 | < 3 | < 100 | Nc1ncc2c3c1c(-c1ccc(C(=O)Nc4cc(C(F)(F)F)ccn4)cc1)nn3[C@@H]1CCC[C@H](C1)NC(=O)CCCC/C=C/2 [Example 48] | < 100 |
| < 5 | 2.57 | < 2 nM | – | < 5 | < 5 | < 5 | 2.03 | < 5 | 4.50 | < 100 | 4.98 | < 3 | < 100 | Nc1ncc2c3c1c(-c1ccc(C(=O)Nc4cc(C(F)(F)F)ccn4)cc1F)nn3[C@@H]1CCC[C@H](C1)NC(=O)CCC/C=C/2 [Example 7] | 500 to 10000 |
| < 5 | 5.05 | < 2 nM | 2.55 | < 5 | < 5 | < 5 | 3.37 | < 5 | 2.04 | < 100 | 4.09 | < 3 | < 100 | Nc1ncc2c3c1c(-c1ccc(C(=O)Nc4cc(C(F)(F)F)ccn4)cc1)nn3[C@@H]1CCC[C@H](C1)NC(=O)CCCOC/C=C/2 [Example 27] | < 100 |
| < 5 | – | 10 to 50 nM and < 5 nM | – | < 5 | < 5 | < 5 | – | < 5 | 0.98 | < 100 | – | < 5 | 100 to 1000 | Nc1ncc2c3c1c(-c1ccc(C(=O)Nc4ccccn4)cc1)nn3[C@@H]1CCC[C@H](C1)NC(=O)CCCC/C=C\C2 [Example 100b] | 500 to 10000 |
| < 5 | – | 10 to 50 nM and < 5 nM | – | < 5 | < 5 | < 5 | – | < 5 | – | < 100 | – | < 3 | < 100 | Nc1ncc2c3c1c(-c1ccc(C(=O)Nc4ccccn4)cc1)nn3[C@@H]1CCC[C@H](C1)C(=O)NCCCC/C=C\C2 [Example 87b] | 100 to 500 |
| < 5 | 1.10 | 10 to 50 nM and < 5 nM | – | < 5 | < 5 | < 5 | 1.04 | < 5 | 2.05 | < 100 | – | < 3 | < 100 | C[C@@H]1CCn2nc(-c3ccc(C(=O)Nc4cc(C(F)(F)F)ccn4)cc3)c3c(N)ncc(c32)/C=C/CCOCC(=O)N1 [Example 59] | 500 to 10000 |
| < 5 | 5.28 | < 2 nM | – | < 5 | < 5 | < 5 | 10.42 | < 5 | 1.73 | < 100 | 6.36 | < 3 | < 100 | Nc1ncc2c3c1c(-c1ccc(C(=O)Nc4cc(C(F)(F)F)ccn4)cc1)nn3[C@@H]1CCC[C@H](C1)NC(=O)[C@@H]1CCN(C/C=C/2)C1 [Example 147] | < 100 |
| < 5 | 2.25 | 10 to 50 nM and < 5 nM | – | < 5 | < 5 | < 5 | 1.30 | < 5 | 3.30 | < 100 | 3.17 | < 3 | 100 to 1000 | Nc1ncc2c3c1c(-c1ccc(C(=O)Nc4cc(C(F)(F)F)ccn4)cc1F)nn3[C@@H]1CCC[C@H](C1)NC(=O)CNC/C=C/2 [Example 8] | 500 to 10000 |
| < 5 | 2.52 | < 2 nM | – | < 5 | < 5 | < 5 | 2.48 | < 5 | 1.51 | < 100 | 1.5 | < 3 | 100 to 1000 | C[C@H]1CC(=O)N[C@@H]2CCCC(C2)n2nc(-c3ccc(C(=O)Nc4cc(C(F)(F)F)ccn4)cc3)c3c(N)ncc(c32)/C=C/CCN1 [Example 150] | 100 to 500 |
| < 5 | 6.06 | < 2 nM | 1.70 | < 5 | < 5 | < 5 | 5.41 | < 5 | 9.06 | < 100 | 8.1 | < 3 | < 100 | Nc1ncc2c3c1c(-c1ccc(C(=O)Nc4cc(C(F)(F)F)ccn4)cc1)nn3[C@@H]1CCC[C@H](C1)NC(=O)C1CCN1CC/C=C/2 (some centres unmarked) [Example 34] | < 100 |
| < 5 | 0.97 | 10 to 50 nM and < 5 nM | – | < 5 | < 5 | < 5 | – | < 5 | 1.63 | < 100 | 1.85 | < 3 | 100 to 1000 | C[C@@H]1CCn2nc(-c3ccc(C(=O)Nc4cc(C(F)(F)F)ccn4)cc3)c3c(N)ncc(c32)/C=C/CCCC(=O)N1 [Example 76] | 500 to 10000 |
| < 5 | 1.29 | < 2 nM | – | < 5 | < 5 | < 5 | – | < 5 | 1.67 | < 100 | 1.97 | < 3 | 100 to 1000 | C[C@@H]1CCn2nc(-c3ccc(C(=O)Nc4cc(C#N)ccn4)cc3)c3c(N)ncc(c32)/C=C/CCOCCC(=O)N1 [Example 153] | 500 to 10000 |
| < 5 | 2.14 | < 2 nM | – | < 5 | < 5 | < 5 | 2.06 | < 5 | 7.92 | < 100 | 1.96 | < 3 | < 100 | C[C@@H]1CCn2nc(-c3ccc(C(=O)Nc4cc(C(F)(F)F)ccn4)cc3)c3c(N)ncc(c32)/C=C/CO[C@H](C)C(=O)N1 [Example 57] | 500 to 10000 |
| < 5 | 2.24 | 10 to 50 nM and < 5 nM | – | < 5 | < 5 | < 5 | 1.46 | < 5 | 2.74 | < 100 | 2.62 | < 3 | < 100 | C[C@@H]1CCn2nc(-c3ccc(C(=O)Nc4cc(C(F)(F)F)ccn4)cc3)c3c(N)ncc(c32)/C=C/COCC(=O)N1 [Example 56] | 500 to 10000 |
| < 5 | 7.58 | < 2 nM | 0.70 | < 5 | < 5 | – | 1.89 | < 5 | 8.25 | < 100 | 2.11 | < 3 | 100 to 1000 | C[C@H]1CC(=O)N[C@@H]2CCC[C@H](C2)n2nc(-c3ccc(C(=O)Nc4cc(C(F)(F)F)ccn4)cc3)c3c(N)ncc(c32)/C=C/CN1C [Example 151] | 100 to 500 |

Source: patent US20250074911A1, “MACROCYCLIC BTK INHIBITORS” (Crossfire Oncology Holding B.V., priority 2021, published 2025)
